Assay results taken from the supplement of paper PMC10307832.

Key:
Assay in all cases: relative viability (nuclei count vs DMSO), 5 days (fraction); higher = more cells survive
MK-2206 + Trametinib = compound: NC1(c2ccc(-c3nc4ccn5c(=O)[nH]nc5c4cc3-c3ccccc3)cc2)CCC1 [MK-2206] + CC(=O)Nc1cccc(-n2c(=O)n(C3CC3)c(=O)c3c(Nc4ccc(I)cc4F)n(C)c(=O)c(C)c32)c1 [Trametinib] (partner 0.02 µM)
How it was run: (§1)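 After 5 days of treatment, lung cancer cells in 1536-well plates were fixed and stained in a single step (final 0.05% Triton X-100, 1% formaldehyde, 1 ug/ml Hoechst) and their nuclei counted on 4× images. Treatment had been applied by pin tool the day after seeding as one drug alone or as a fixed anchor-drug dose with five library-drug doses (not always all listed) in √10 steps. Relative viability is the nuclei count of treated wells divided by that of vehicle wells, and values are medians of duplicate plates.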

MK-2206 + Dasatinib = compound: NC1(c2ccc(-c3nc4ccn5c(=O)[nH]nc5c4cc3-c3ccccc3)cc2)CCC1 [MK-2206] + Cc1nc(Nc2ncc(C(=O)Nc3c(C)cccc3Cl)s2)cc(N2CCN(CCO)CC2)n1 [Dasatinib] (partner 0.075 µM)
How it was run: as §1

MK-2206 + Olaparib = compound: NC1(c2ccc(-c3nc4ccn5c(=O)[nH]nc5c4cc3-c3ccccc3)cc2)CCC1 [MK-2206] + O=C(c1cc(Cc2n[nH]c(=O)c3ccccc23)ccc1F)N1CCN(C(=O)C2CC2)CC1 [Olaparib] (partner 8 µM)
How it was run: as §1

Pictilisib + Crizotinib = compound: CS(=O)(=O)N1CCN(Cc2cc3nc(-c4cccc5[nH]ncc45)nc(N4CCOCC4)c3s2)CC1 [Pictilisib] + C[C@@H](Oc1cc(-c2cnn(C3CCNCC3)c2)cnc1N)c1c(Cl)ccc(F)c1Cl [Crizotinib] (partner 1 µM)
How it was run: as §1

MK-2206 + AZD7762 = compound: NC1(c2ccc(-c3nc4ccn5c(=O)[nH]nc5c4cc3-c3ccccc3)cc2)CCC1 [MK-2206] + NC(=O)Nc1cc(-c2cccc(F)c2)sc1C(=O)N[C@H]1CCCNC1 [AZD7762] (partner 0.2 µM)
How it was run: as §1

Cell Line	relative viability (MK-2206 + Trametinib; first compound 0.01 µM)	relative viability (MK-2206 + Trametinib; first compound 0.03162 µM)	relative viability (MK-2206 + Trametinib; first compound 0.3162 µM)	relative viability (MK-2206 + Trametinib; first compound 1 µM)	relative viability (MK-2206 + Dasatinib; first compound 0.01 µM)	relative viability (MK-2206 + Dasatinib; first compound 0.3162 µM)	relative viability (MK-2206 + Dasatinib; first compound 1 µM)	relative viability (MK-2206 + Olaparib; first compound 0.01 µM)	relative viability (MK-2206 + Olaparib; first compound 0.03162 µM)	relative viability (MK-2206 + Olaparib; first compound 0.3162 µM)	relative viability (MK-2206 + Olaparib; first compound 1 µM)	relative viability (Pictilisib + Crizotinib; first compound 0.02 µM)	relative viability (Pictilisib + Crizotinib; first compound 0.06325 µM)	relative viability (Pictilisib + Crizotinib; first compound 0.6325 µM)	relative viability (Pictilisib + Crizotinib; first compound 2 µM)	relative viability (MK-2206 + AZD7762; first compound 0.01 µM)	relative viability (MK-2206 + AZD7762; first compound 0.03162 µM)	relative viability (MK-2206 + AZD7762; first compound 0.3162 µM)	relative viability (MK-2206 + AZD7762; first compound 1 µM)	relative viability (MK-2206 + Dasatinib; first compound 0.03162 µM)
HCC-78	0.746	0.832	0.786	0.907	0.511	0.373	0.227	0.932	1.06	0.716	0.739	0.321	0.305	0.222	0.18	0.66	0.608	0.624	0.538	–
HCC-366	0.302	0.384	0.204	0.223	0.696	0.434	0.222	0.367	0.472	0.328	0.322	0.493	0.697	0.251	0.0577	0.26	0.204	0.244	0.18	0.68
IA-LM	–	–	–	–	–	–	–	0.869	0.791	0.993	0.781	0.649	0.75	0.628	0.534	–	–	–	–	–
NCI-H520	0.833	0.569	0.277	0.187	0.179	0.189	0.18	0.359	0.331	0.228	0.195	0.826	0.884	0.504	0.197	–	–	–	–	0.178
NCI-H522	0.817	0.746	0.635	0.672	0.98	0.857	0.894	0.668	0.624	0.629	0.666	–	–	–	–	0.85	0.763	0.993	0.762	0.842
NCI-H661	0.573	0.712	0.603	0.503	0.898	0.856	0.949	0.768	0.751	0.763	0.738	–	1.01	1.24	0.729	–	–	–	–	0.907
NCI-H1299	–	–	–	–	–	–	–	0.967	1.04	1.05	1.02	0.99	1.03	1.05	0.933	–	–	–	–	–
NCI-H1395	1.02	1.16	0.804	0.897	0.435	0.413	0.362	0.492	0.49	0.418	0.411	–	–	–	–	0.407	0.369	0.388	0.351	0.399
NCI-H1563	–	–	–	–	0.492	0.406	0.407	–	–	–	–	0.924	0.889	0.761	0.581	–	–	–	–	0.449
NCI-H1623	–	–	–	–	0.518	0.556	0.423	–	–	–	–	–	–	–	–	–	–	–	–	0.471
NCI-H1648	0.491	0.497	0.591	0.497	–	–	–	1.01	1.11	0.966	0.769	–	–	–	–	0.657	0.481	0.797	0.855	–
NCI-H1650	0.54	0.649	0.612	0.643	0.312	0.215	0.244	0.72	0.864	0.969	0.957	1.02	1.1	1.2	0.395	–	–	–	–	0.273
NCI-H1703	–	–	–	–	–	–	–	0.444	0.426	0.443	0.407	0.532	0.666	0.261	0.178	0.14	0.105	0.112	0.112	–
NCI-H1793	0.4	0.433	0.298	0.391	0.474	0.344	0.317	0.87	1.02	0.791	0.766	–	–	–	–	0.679	0.232	0.243	0.251	0.514
NCI-H2009	0.252	0.299	0.248	0.254	0.296	0.287	0.325	0.703	0.662	0.701	0.704	1.02	1.02	1.04	0.705	–	–	–	–	0.309
NCI-H2023	0.514	0.532	0.38	0.376	0.6	0.443	0.362	0.463	0.506	0.436	0.44	0.513	0.533	0.331	0.201	–	–	–	–	0.542
NCI-H2228	0.375	0.433	0.284	0.448	0.533	0.355	0.266	0.832	0.594	0.464	0.417	0.437	0.473	0.311	0.168	–	–	–	–	0.485
NCI-H2342	0.909	0.8	0.664	0.682	0.369	0.282	0.276	0.444	0.471	0.386	0.353	–	–	–	–	0.527	0.478	0.423	0.376	0.296
SK-LU-1	0.556	0.513	0.449	0.431	0.196	0.198	0.151	0.47	0.457	0.47	0.371	0.957	1.17	0.945	0.697	–	–	–	–	0.19
SK-MES-1	0.519	0.47	0.467	0.515	0.396	0.356	0.425	0.635	0.727	0.692	0.482	1.04	0.971	0.804	0.492	–	–	–	–	0.437
SW 900	0.809	–	0.702	0.86	0.573	0.531	0.476	0.79	–	0.874	0.885	–	–	–	–	0.531	–	0.591	0.728	0.636
SW 1573	0.608	0.516	0.444	0.489	0.431	0.364	0.419	0.5	0.466	0.396	0.393	0.817	0.791	0.626	0.268	–	–	–	–	0.554
